Laboratory results published in patent US8518956B2, “1-(1-(2-ethoxyethyl)-3-ethyl-7-(4-methylpyridin-2-ylamino)-1H-pyrazolo[4,3-d]pyrimidin-5-yl) piperidine-4-carboxylic acid and salts thereof” (priority 2005, dated 2013).

molecular target: T1, PDE5 enzyme (Homo sapiens, UniProt O76074); assay: Method 1: Human Platelet PDE5 Enzyme Inhibition Scintillation Proximity Assay; format: biochemical; details: METHOD 1: PDE5 IC50, Table B, WO2004096810 examples
T1 construct: The PDE5 enzyme isolated from human platelets; from tissue; host or cells: human platelets
Source text: Method 1: Human Platelet PDE5 Enzyme Inhibition Scintillation Proximity Assay
An in vitro assay can be used to evaluate the inhibition of PDE5 enzyme activity by a test compound.
The PDE5 enzyme for use in the assay can be obtained from human platelets by appropriate modification of the method of Thompson, W J et al.; Biochemistry 18(23), 5228-5237, 1979, as described by Ballard S A et al.; J. Urology 159(6), 2164-2171, 1998. The PDE5 enzyme isolated from human platelets can be used to catalyze the hydrolysis of [^3H]cGMP (Amersham Biosciences) to 5′ nucleotide [^3H]GMP. The [^3H]GMP binds to yttrium silicate SPA beads (Amersham Biosciences) and is detected by scintillation counting. More specifically, the effect of the test compound at different concentrations can be evaluated in the assay by contacting the compound with a fixed amount of PDE5 enzyme in the presence of substrate (cGMP or cAMP in a 3:1 ratio unlabelled to [^3H]-labeled). Scintillation counting can be used as described above to determine relative PDE5 enzyme activity. The inhibition of PDE5 enzyme activity is then calculated relative to total PDE5 enzyme activity of uninhibited controls.
PDE5 IC50 Assay: 96-well microtiter plate format
• Buffer A: 20 mM Tris-HCl, 5 mM MgCl2, pH 7.4 • Buffer B: 2 mg/ml BSA in Buffer A (enzyme buffer) • cGMP substrate: Final concentration of 500 nM in assay The amount of ^3H-labeled substrate added depends upon the specific activity of [^3H]cGMP, and the cGMP substrate is diluted with a 10 mM stock of cold cGMP in Buffer A for a final substrate concentration of 500 nM in the assay. • PDE enzyme: Prepared in Buffer B. The dilution factor is determined by enzyme activity. • SPA beads: 20 mg/ml suspension prepared in dH2O.
Stocks of standard and test compounds are prepared at 5 mM in 100% DMSO. The compound is serially diluted in a dilution plate using a 10-point ½ log dilution format. 2 μl of the compound dilution is added in duplicate to the wells of the assay plate. 2 μl of 100% DMSO are added to designated control wells. 25 μl of Buffer A are added to all wells. 25 μl of Buffer B are added to the negative control wells. 25 μl of enzyme are added to the remaining wells. 50 μl of substrate are added to each well. Plates are sealed and incubated for 60 minutes on a plate shaker at 30 C. 50 plof SPA beads are added to stop the reaction. The plates are again sealed and shaken for 15 minutes to allow the beads to bind the GMP product. The beads are allowed to settle for 30 minutes and then read on a NXT TopCount scintillation counter. Data are analyzed with a curve fitting application for plate-based screening. Percent inhibition in this assay is calculated as follows: Inhibition (%)=[(mean maximum−compound value/(mean maximum−mean minimum)]×100.
The IC50 value is determined from sigmoid dose-response curves of enzyme activity versus compound concentration.

Compound	IC50 [nM]
COCCn1nc(C)c2nc(N3C[C@H](C)NC[C@H]3C)nc(Nc3cc(C)ccn3)c21 [WO2004096810 Example 133]	4.45
COCCn1nc(C)c2nc(N3C[C@H](C)NC[C@H]3C)nc(Nc3ccc(C)cn3)c21 [WO2004096810 Example 134]	6.57
CCOCCn1nc(CC)c2nc(N3C[C@H](C)NC[C@H]3C)nc(Nc3ccc(C)cn3)c21 [WO2004096810 Example 140]	1.95
COCCn1nc(C)c2nc(N3C[C@@H](C)NC[C@@H]3C)nc(Nc3cc(C)ccn3)c21 [WO2004096810 Example 142]	22.7
COCCn1nc(C)c2nc(N3C[C@@H](C)NC[C@@H]3C)nc(Nc3ccc(C)cn3)c21 [WO2004096810 Example 143]	81.2
COCCn1nc(C)c2nc(N3C[C@@H](C)NC[C@@H]3C)nc(Nc3ccncn3)c21 [WO2004096810 Example 144]	5.34
CCOCCn1nc(C)c2nc(N3C[C@@H](C)NC[C@@H]3C)nc(Nc3cc(C)ccn3)c21 [WO2004096810 Example 145]	7.15
CCOCCn1nc(C)c2nc(N3C[C@@H](C)NC[C@@H]3C)nc(Nc3ccc(C)cn3)c21 [WO2004096810 Example 146]	32.1
CCOCCn1nc(C)c2nc(N3C[C@@H](C)NC[C@@H]3C)nc(Nc3ccncn3)c21 [WO2004096810 Example 147]	2.46
CCOCCn1nc(CC)c2nc(N3C[C@@H](C)NC[C@@H]3C)nc(Nc3cc(C)ccn3)c21 [WO2004096810 Example 148]	4.39
CCOCCn1nc(CC)c2nc(N3C[C@@H](C)NC[C@@H]3C)nc(Nc3ccc(C)cn3)c21 [WO2004096810 Example 149]	34.8
CCc1nn(CCOC)c2c(Nc3ccc(C)cn3)nc(N3CCNCC3)nc12 [WO2004096810 Example 151]	22
CCc1nn(CCOC)c2c(Nc3cc(C)ccn3)nc(N3CCNCC3)nc12 [WO2004096810 Example 152]	12.1
CCc1nn(CCOC)c2c(Nc3cc(C)ccn3)nc(NCCn3cccn3)nc12 [WO2004096810 Example 153]	19.5
CCc1nn(CCOC)c2c(Nc3cc(C)ccn3)nc(N[C@H](C)CO)nc12 [WO2004096810 Example 154]	12.6
COCCn1nc(C)c2nc(N(C)[C@@H]3CCN(C)C3)nc(Nc3cc(C)ccn3)c21 [WO2004096810 Example 155]	13.4
CCOCCn1nc(C)c2nc(N(C)[C@@H]3CCN(C)C3)nc(Nc3ccncn3)c21 [WO2004096810 Example 157]	16.7
CCOCCn1nc(CC)c2nc(N(C)[C@@H]3CCN(C)C3)nc(Nc3ccc(C)cn3)c21 [WO2004096810 Example 159]	16.3

Compound	IC50 [nM]
CCOCCn1nc(CC)c2nc(N(C)[C@@H]3CCN(C)C3)nc(Nc3ccncn3)c21 [WO2004096810 Example 160]	7.22
COCCn1nc(C)c2nc(N3CCNCC3)nc(Nc3cc(C)ccn3)c21 [WO2004096810 Example 165]	10.5
Cc1ccnc(Nc2nc(N3CCNCC3)nc3c(C)nn(CC4CCCO4)c23)c1 (centres unmarked) [WO2004096810 Example 166]	11.5
Cc1ccnc(Nc2nc(N3CCNCC3)nc3c(C)nn(Cc4ccccn4)c23)c1 [WO2004096810 Example 167]	2.95
Cc1ccnc(Nc2nc(N3CCNCC3)nc3c(C)nn(CC(F)(F)F)c23)c1 [WO2004096810 Example 170]	2100
Cc1ccnc(Nc2nc(N3CCNCC3)nc3c(C)n(CC4CC4)nc23)c1 [WO2004096810 Example 173]	396
Cc1ccnc(Nc2nc(N3CCNCC3)nc3c(C)n(CCC(C)C)nc23)c1 [WO2004096810 Example 174]	432
Cc1ccnc(Nc2nc(N3CCNCC3)nc3c(C)n(Cc4ccccn4)nc23)c1 [WO2004096810 Example 176]	274
Cc1ccnc(Nc2nc(N3CCNCC3)nc3c(C)n(CC4CCC4)nc23)c1 [WO2004096810 Example 177]	535
COCCn1nc(C(C)C)c2nc(N3CCNCC3)nc(Nc3ccc(C)cn3)c21 [WO2004096810 Example 179]	18.3
CCc1nn(CCOC)c2c(Nc3cc(C)n[nH]3)nc(N3CCNCC3)nc12 [WO2004096810 Example 180]	341
CCOCCn1nc(CO)c2nc(N(C)C)nc(Nc3cc(C)ccn3)c21 [WO2004096810 Example 182]	4.03
CCOCCn1nc(CC)c2nc(N(C)[C@H]3CCN(C)C3)nc(Nc3ccc(C)cn3)c21 [WO2004096810 Example 192]	3.06
CCOCCn1nc(C)c2nc(N3CCN[C@H](C)C3)nc(Nc3cc(C)cc(C)n3)c21 [WO2004096810 Example 198]	10
CCOCCn1nc(C)c2nc(N3CCN[C@H](C)C3)nc(Nc3cnc(C)c(C)c3)c21 [WO2004096810 Example 199]	3.13
CCOCCn1nc(C)c2nc(N3CCN[C@H](C)C3)nc(Nc3cc(C)ncn3)c21 [WO2004096810 Example 200]	4.7
CCOCCn1nc(C)c2nc(N3CCN[C@H](C)C3)nc(Nc3ccc(=O)n(C)c3)c21 [WO2004096810 Example 201]	25.9

The next compounds have a lower IC50 than those just listed; values first:

IC50 [nM]	Compound
0.92	COCCn1nc(C)c2nc(N3C[C@H](C)NC[C@H]3C)nc(Nc3ccncn3)c21 [WO2004096810 Example 135]
1.09	CCOCCn1nc(C)c2nc(N3C[C@H](C)NC[C@H]3C)nc(Nc3cc(C)ccn3)c21 [WO2004096810 Example 136]
1.43	CCOCCn1nc(C)c2nc(N3C[C@H](C)NC[C@H]3C)nc(Nc3ccc(C)cn3)c21 [WO2004096810 Example 137]
0.33	CCOCCn1nc(C)c2nc(N3C[C@H](C)NC[C@H]3C)nc(Nc3ccncn3)c21 [WO2004096810 Example 138]
0.55	CCOCCn1nc(CC)c2nc(N3C[C@H](C)NC[C@H]3C)nc(Nc3cc(C)ccn3)c21 [WO2004096810 Example 139]
0.15	CCOCCn1nc(CC)c2nc(N3C[C@H](C)NC[C@H]3C)nc(Nc3ccncn3)c21 [WO2004096810 Example 141]
1.83	CCOCCn1nc(CC)c2nc(N3C[C@@H](C)NC[C@@H]3C)nc(Nc3ccncn3)c21 [WO2004096810 Example 150]
1.8	CCOCCn1nc(C)c2nc(N(C)[C@@H]3CCN(C)C3)nc(Nc3cc(C)ccn3)c21 [WO2004096810 Example 156]
0.71	CCOCCn1nc(CC)c2nc(N(C)[C@@H]3CCN(C)C3)nc(Nc3cc(C)ccn3)c21 [WO2004096810 Example 158]
0.5	CCOCCn1nc(C)c2nc(N(C)[C@H]3CCN(C)C3)nc(Nc3cc(C)ccn3)c21 [WO2004096810 Example 161]
0.24	CCOCCn1nc(CC)c2nc(N(C)[C@H]3CCN(C)C3)nc(Nc3cc(C)ccn3)c21 [WO2004096810 Example 162]
0.81	Cc1ccnc(Nc2nc(N3CCNCC3)nc3c(C)nn(CC4CCCCO4)c23)c1 (centres unmarked) [WO2004096810 Example 168]
0.39	CCOCCn1nc(CO)c2nc(N(C)CC)nc(Nc3cc(C)ccn3)c21 [WO2004096810 Example 181]
1.3	CCOCCn1nc(COC)c2nc(N(C)C)nc(Nc3cc(C)ccn3)c21 [WO2004096810 Example 185]
0.47	CCOCCn1nc(COCC)c2nc(N(C)C)nc(Nc3cc(C)ccn3)c21 [WO2004096810 Example 188]
0.24	CCOCCn1nc(C)c2nc(N(C)[C@H]3CCN(C)C3)nc(Nc3ccncn3)c21 [WO2004096810 Example 191]
1.01	CCOCCn1nc(CC)c2nc(N(C)[C@H]3CCN(C)C3)nc(Nc3ccncn3)c21 [WO2004096810 Example 193]
0.56	CCOCCn1nc(C)c2nc(N3CCN[C@H](C)C3)nc(Nc3ccc(OC)nc3)c21 [WO2004096810 Example 194]
0.96	CCOCCn1nc(C)c2nc(N3CCN[C@H](C)C3)nc(Nc3ccc(OC)cn3)c21 [WO2004096810 Example 195]
0.56	CCOCCn1nc(C)c2nc(N3CCN[C@H](C)C3)nc(Nc3cccc(OC)n3)c21 [WO2004096810 Example 196]
1.76	CCOCCn1nc(C)c2nc(N3CCN[C@H](C)C3)nc(Nc3cccc(C)n3)c21 [WO2004096810 Example 197]
